The text below walks through data of patent US7354954B1, “Use of GABA agonists for treatment of spastic disorders, convulsions, and epilepsy” (priority 2000, dated 2008).

The subject of data set [1] is chronic spastic SCl rat model. In words: Ability to walk a series of balance beams (7.7 cm to 1.7 cm) in spastic SCI rats. The data set is classed as in vivo, Sprague Dawley rats. To be noted: for beam walking, mean: 15 micrograms per day intrathecal. The method, then:
Subjects—Twenty Sprague Dawley rats with severe spinal cord injury and spasticity, which were more than ten weeks from initial weight, drop injury. […] The rats were implanted using the 2 French Fogarty balloon catheter attached to a refillable 1 cc. Pumps (ESOX Minneapolis Minn.) placed surgically in the subcutaneously between the shoulder blades one week earlier that had been effectively delivering preservative free normal saline. The ESOX pump flowed at a rate of 60 μl per day. The pump initially contained saline solution and the animals were again tested several days after pump placement for spasticity. Design—Rats were randomized to a blinded three-arm study utilizing GABAmide, baclofen and placebo in a cross over design. The pump has the advantage that the solution in the pump can be changed so that drugs can be evaluated. GABAmide was placed in the pumps and the animals were evaluated at the times specified below. Main Outcome Measures—Rats were tested weekly for levels of spasticity: 4) spasms spontaneously occur over a four minute observation period 3) spasms with light touch of the foot 2) spasms with passive movement of the foot and leg by extending the leg 1) spasms with painful stimulation—extend leg and pinch foot 0) no spasms inducible This scale was adapted for use in animals from the Ashworth score (Albright et al., Intrathecal baclofen therapy for spasticity of cerebral origin: Patient selection guidelines 1997), which has been utilized so frequently in human trials and in the clinical management of intrathecal baclofen. Meythaler et al., Arch. Phys. Med. Rehabil. […] Rats were also assessed for functional changes utilizing the BBB scoring system for motor function and for their ability to walk a series of balance beams without falling that started at 7.7 cm. and decreased in 1 cm increments to 1.7 cm. in diameter (the smallest a normal rat can easily and reliably cross). […] Differences over times were assessed via descriptive statistics, Friedman's analysis, Wilcoxon signed-rank, for nonparametric data (spasticity, BBB score and beam walking).

The next data set in a line: Solubility in water. The data set is classed as physicochemical.
The next data set is described as follows: Stability in solution. The data set is classed as physicochemical. The source says:
In a preferred embodiment, the compound administered to a patient or subject is the gamma-aminobutyramide, a solubility product obtained by dissolving PROGABIDE in a solvent thereby generating gamma-aminobutyramide and an insoluble ketone. The insoluble ketone (4-chlorophenyl-5-fluoro-2-hydroxyphenylmethanone) is subsequently removed by filtration leaving the pure, stable gamma-aminobutyramide.

In data set [2] the test system is chronic spastic SCl rat model. Put plainly: Spasticity score (scale adapted from the Ashworth score) in chronic spastic SCI rat model, intrathecal delivery by implantable pump. It counts as in vivo, Sprague Dawley rats. To be noted: compared with baclofen. The method, then:
(§1) A study on the use GABAmide was performed to compare its effectiveness to reduce spasticity and assess toxicity via intrathecal delivery in a chronic spastic SCl rat model utilizing an implantable refillable pump.
(§2) Subjects—Twenty Sprague Dawley rats with severe spinal cord injury and spasticity, which were more than ten weeks from initial weight, drop injury. […] The rats were implanted using the 2 French Fogarty balloon catheter attached to a refillable 1 cc. Pumps (ESOX Minneapolis Minn.) placed surgically in the subcutaneously between the shoulder blades one week earlier that had been effectively delivering preservative free normal saline. The ESOX pump flowed at a rate of 60 μl per day. […] The pump has the advantage that the solution in the pump can be changed so that drugs can be evaluated. GABAmide was placed in the pumps and the animals were evaluated at the times specified below. […] Rats were also assessed for functional changes utilizing the BBB scoring system for motor function and for their ability to walk a series of balance beams without falling that started at 7.7 cm. and decreased in 1 cm increments to 1.7 cm. in diameter (the smallest a normal rat can easily and reliably cross). […] Differences over times were assessed via descriptive statistics, Friedman's analysis, Wilcoxon signed-rank, for nonparametric data (spasticity, BBB score and beam walking).

For data set [3], the system named is chronic spastic SCl rat model. Put plainly: Tolerability of intrathecal delivery in spastic SCI rats. The data set is classed as in vivo. The procedure: as §1, §2
Data set [4] deals with chronic spastic SCl rat model. Put plainly: BBB scoring system for motor function in spastic SCI rats. The data set is classed as in vivo, Sprague Dawley rats. The procedure: as §2, with “day. The pump initially contained saline solution and the animals were again tested several days after pump placement for spasticity.” for “day.”
The next data set has as its system canine model. To be noted: 2000 μg/d for 28 days, intrathecal; cited from earlier work.
[5] abbreviates: 5 micrograms per day intrathecal, throughout the study.

Structures are written as SMILES.

`NCCCC(N)=O` [GABAmide, gamma-aminobutyramide]: in data set [1] (setting [5]), the “change in beam walking” value is “not statistically significant change”. For the same compound, the solubility in water entry in the data set “Solubility in water” was “soluble in water”. In the data set “Stability in solution”, the stability result was “relatively stable for long periods of time”. In data set [2], the accommodation to spasticity entry is given as “less accommodation to spasticity than baclofen”. The tolerability result in data set [3] was “well tolerated”. Moreover, in data set [4] (setting [5]), the “change in BBB score” value was “not statistically significant change”.
In the case of `NCC(CC(=O)O)c1ccc(Cl)cc1` (stereo not shown) [baclofen], the “beam walking, mean” value in data set [1] (day five of treatment) amounted to 6.0 cm; in data set [1] (day three, baseline 5.2 cm, p=0.01 Friedman's), 2.7 cm. The “change in BBB score” value in data set [4] (15 micrograms per day intrathecal, day five of treatment) is reported as “not significant”. The histopathology result in the data set with canine model was “no deleterious histopathology”.
